US20060052346A1, “Nucleoside phosphonate derivatives useful in the treatment of HIV infections” (priority 2004, published 2006)
Where two headings read alike, the source gives them in different places.

System: HIV-1 (NL4-3)
Experiment: Plaque reduction assay (drug susceptibility) in HT4-6C cells infected with HIV-1 NL4-3
Assay type: cell-based
Conditions: for IC50: Human immunodeficiency virus 1, NL43, 72 h
Excerpt: Measurement of Inhibition Effect Against Human Immunodeficiency Virus (HIV)
The compounds of formula 1 protect cells from the cytopathic effects of HIV infection.
Cells. The T-lymphoblastoid cell line CEM was used in this study to propagate HIV. The cells were maintained in RPMI 1640 growth medium supplemented with 10% fetal bovine serum plus antibiotics. The CD4-expressing cell line used for HIV plaque assays, HT4-6C, was made by transforming HeLa cells with the human CD4 gene as described in Chesebro and Wehrly, J. Virology, 62(10), 3779-3788 (1988). These cells were grown in Dulbecco modified eagle medium (DMEM) containing 10% fetal bovine serum plus antibiotics.
Virus propagation. The laboratory strain of HIV-1 (NL4-3) was grown in CEM cells. Virus stocks were prepared from cleared lysates of concentrated infected cells. At peak cytopathic effect (generally 5 days post-infection) culture supernatants were harvested and stored at −80° C. Viral infectivity titers were determined in threefold endpoint dilution assays conducted in CEM cells (six wells per dilution). The 50% tissue culture infective dose (TCID50) was calculated using the Reed and Muench equation.
Plaque titration using HT4-6C. Cells are seeded into 24-well multiwells at 5×10^4 cells per well and incubated overnight at 37° C. in growth medium (DMEM containing 10% fetal bovine serum plus antibiotics). Monolayers were infected with 10-fold dilutions of cell-free NL4-3 virus in 0.2 ml of DMEM and were incubated for 1 h at 37° C. to allow virus adsorption. Following this, 0.8 ml of DMEM containing 5% fetal bovine serum plus antibiotics was added to each well, and the cultures were incubated at 37° C. for 2 to 3 days. The monolayers were fixed with a 10% formaldehyde solution in phosphate-buffered saline and stained with 0.25% crystal violet in order to visualize virus plaques. Individual foci of multinucleated giant cells (plaques) are obvious when this staining procedure was used. Virus titers were evaluated from plaque numbers and were expressed as PFU per milliliter.
Drug susceptibility assays. Plaque reduction assays were performed by infecting monolayers of HT4-6C cells with 100 to 300 PFU of virus per well in 24-well microdilution plates as described above. Half-log concentrations of inhibitor were added to the culture medium (DMEM containing 5% fetal bovine serum plus antibiotics), and cultures were incubated for 3 days at 37° C. prior to fixation and staining as described above. ID50s were derived from plots of percentage of plaque reduction versus inhibitor concentration. See Larder et al., Antimicrob Agents Chemother, 34(3), 436-41 (March 1990).

[1] = plaque reduction, HT4-6C cell monolayers, 100 to 300 PFU of virus per well, 3 days at 37° C., read-out: ID50 (the source's name)
[2] = plaque reduction, HT4-6C cell monolayers, 100 to 300 PFU of virus per well, 3 days at 37° C.

IC50 [1] [µM]	Structure (SMILES)	ID25 [2] [µM]	IC50 (read-out: ID50 (μM)) [µM]
~100	Nc1nc(O)c2ncn(CC3(OCP(=O)(O)O)CC3)c2n1 [Compound 5, ({1-[(2-amino-6-hydroxy-9H-purin-9-yl)methyl]cyclopropyl}oxy)methylphosphonic acid]	<10	–
< 10	CC(C)(C)C(=O)OCOP(=O)(COC1(Cn2cnc3c(O)nc(N)nc32)CC1)OCOC(=O)C(C)(C)C [Compound 6, 3-[({1-[(2-amino-6-hydroxy-9H-purin-9-yl)methyl]cyclopropyl}oxy)methyl]-8,8-dimethyl-3,7-dioxo-2,4,6-trioxa-3λ^5-phosphanon-1-yl pivalate]	<0.1	–
> 100	Nc1ncc2ncn(CC3(OCP(=O)(O)O)CC3)c2n1 [Compound 9, ({1-[(2-amino-9H-purin-9-yl)methyl]cyclopropyl}oxy)methylphosphonic acid]	<10	–
–	CC(C)(C)C(=O)OCOP(=O)(COC1(Cn2cnc3cnc(N)nc32)CC1)OCOC(=O)C(C)(C)C [Compound 10, 3-[({1-[(2-amino-9H-purin-9-yl)methyl]cyclopropyl}oxy)methyl]-8,8-dimethyl-3,7-dioxo-2,4,6-trioxa-3λ^5-phosphanon-1-yl pivalate]	<0.1	< 10
> 100	CC1CC1(Cn1cnc2cnc(N)nc21)OCP(=O)(O)O (centres unmarked) [Compound 98, ({1-[(2-amino-9H-purin-9-yl)methyl]-2-methylcyclopropyl}oxy)methylphosphonic acid]	<200	–
> 100	CC1CC1(Cn1cnc2c(N)ncnc21)OCP(=O)(O)O (centres unmarked) [Compound 103, ({1-[(6-amino-9H-purin-9-yl)methyl]-2-methylcyclopropyl}oxy)methylphosphonic acid]	<10	–
< 100	CC1CC1(Cn1cnc2cnc(N)nc21)OCP(=O)(OCOC(=O)C(C)(C)C)OCOC(=O)C(C)(C)C (centres unmarked) [Compound 106, 3-[({1-[(2-amino-9H-purin-9-yl)methyl]-2-methylcyclopropyl}oxy)methyl]-8,8-dimethyl-3,7-dioxo-2,4,6-trioxa-3λ^5-phosphanon-1-yl pivalate]	<1.0	–
